# “And” between values parts separate entries of the source, which are not always exact repeats. Identical values can stand only once. Like-named read-outs stand apart in the source and are kept apart here.
# Columns and labels:
# [1] = Water sorption / dynamic vapor sorption (DVS) hygroscopicity; format: physicochemical
# Method: The pKa value of Compound I free base was calculated (ACD Labs pKa DB, v10.0) as 2.12±0.33. Therefore, Compound I free base was considered as a very weak base that could be protonated by strong acids. […] A sample of Compound I free base was analyzed by powder x-ray diffraction and found to be crystalline without any readily detectable amorphous content. […] (onset temperature).
# The maximum water uptake for the amorphous salt was about 40% whereas the maximum water uptake for the crystalline di-hydrochloride salt was higher, with about 54% uptake.
# The hygroscopic nature of the besylate salt was examined by dynamic vapor sorption analysis (DVS). […] Below 80% relative humidity not much water was adsorbed.
# [2] = Solubility in pure water at 25° C. with PXRD of solid residues; format: physicochemical
# Method: Using a similar strategy as described above, these salts were prepared by evaporation from a solution of free base and acid in a solvent (e.g., methanol-dichloromethane 1:1, ethyl acetate-dichloromethane 1:2, isopropanol, and the like). If necessary, an amorphous salt produced in this way was crystallized by stirring the amorphous material in an appropriate solvent (e.g., ethyl acetate, acetonitrile, and the like).
# [3] = Approximate solubility in MeOH/MTBE at room temperature; format: physicochemical; settings: organic solvent or mixture
# Method: The approximate solubility of mono-tosylate Type A was measured in MeOH/MTBE at room temperature. […] To achieve appropriate volumetric efficiency and yield, the starting concentration in MeOH was 250 mg/mL and the final ratio of the anti-solvent crystallization process in MeOH/MTBE (v/v) was 1:3.
# [4] = Example 19 crossover pharmacokinetics of four oral tablet formulations in fasted dogs; format: in vivo, beagle dogs; settings: Example 19, fasted dogs, 200 mg tablet PO; for concentration at 1 h: read-out: Plasma concentration of Compound I at 1 hour; for concentration at 24 h: read-out: Plasma concentration of Compound I at 24 hours
# Method: Pharmacokinetics parameters of formulations of Compound I and its salts in dogs were determined by orally administering a test formulation tablet at 200 mg of active (Compound I or salt) per dog.
# Blood samples were taken at various times after administration, plasma prepared, and submitted to analysis for parent drug using a qualified LC-MS-MS assay. Pharmacokinetics parameters derived from the plasma analytical data were determined using non-compartmental analysis.
# Pharmacokinetics of Compound I was determined in pentagastrin-pretreated male beagle dogs following a single oral (PO) administration at 200 mg/tablet/dog in a 4-phase crossover study with a washout period of at least 7 days in between each phase. Five male non-naive purebred beagle dogs were used in each phase of study. All dogs were pretreated with pentagastrin (6 μg/kg intramuscular administrations) approximately 30 minutes before administration of test article.
# Four tablet formulations of test article were assessed, each containing 200 mg test article (free base equivalent). Animals were fasted overnight prior to PO dosing through approximately 4 hours postdose. The tablet dose was administered orally, followed by approximately 10 mL of RO (reverse osmosis) water. Phase 1 animals were given tablets containing Compound I in nanosuspension formulation as described above, phase 2 animals were given tablets containing Compound I in jet-milled form as described above, and phase 4 animals received tablets containing Compound I mono-tosylate salt as described above. In phase 3, tablets including an amorphous solid dispersion as described above were crushed and suspended in water, then dosed to the animals. Each animal received one triturated tablet, which was administered orally by gavage as an aqueous suspension formulation. Blood samples were collected predose and at 0.25, 0.5 1, 2, 4, 8, 24, 36 and 48 hours after the oral dose. Plasma was harvested, and the concentration of Compound I in each sample was determined by a non-validated LC/MS/MS assay. The assay limit of quantitation was 1.02 to 5.1 ng/mL for Compound I.
# Mean Compound I concentrations measured in plasma were used to construct semi-logarithmic plasma concentration-time curves (FIG. 13). Pharmacokinetic analysis was performed using a non-compartmental method.
# [5] = individual subjects, LOQ 1.02 to 5.1 ng/mL, mono-tosylate salt
# [6] = individual subjects, mono-tosylate salt
# [7] = male, beagle, dog, plasma, po, 200 mg/tablet/dog, individual subjects, LOQ 1.02 to 5.1 ng/mL
# [8] = male, beagle, dog, plasma, po, 200 mg/tablet/dog, mean, LOQ 1.02 to 5.1 ng/mL
structure (smiles),measurement,setting,value
"Cc1ccc(S(=O)(=O)O)cc1.Cn1cc(-c2cn(-c3ccc(OC(F)(F)F)cc3)c(=O)c3ncn(C)c23)cn1 [mono-tosylate, 1-methyl-7-(1-methyl-1H-pyrazol-4-yl)-5-(4-(trifluoromethoxy)phenyl)-1,5-dihydro-4H-imidazo[4,5-c]pyridin-4-one, mono-tosylate salt]",reversibility of water adsorption within the timeframe of observation,[1],essentially reversible
same,pH (24 hrs),"[2]; pH of solubility sample, pure water, 25° C., 24 hours",1.53
same,pH (1 hr),"[2]; pH of solubility sample, pure water, 25° C., one hour",1.47
same,S 24 hrs,"[2]; pure water, 25° C., 24 hours equilibration",1.24 mg/mL
same,S 1 hr,"[2]; pure water, 25° C., one hour",2.54 mg/mL
same,solubility at 24 h,"[2]; water, 25 °C, water, thermodynamic from solid, Table 5: free base and crystalline salt forms",1240 µg/mL
same,solubility,"[3]; MeOH/MTBE (v/v, 1:2), read-out: approximate solubility in MeOH/MTBE (v/v, 1:2)",9300 to 18600 µg/mL
same,solubility,"[3]; MeOH/MTBE (v/v, 1:3), read-out: approximate solubility in MeOH/MTBE (v/v, 1:3)",< 5400 µg/mL
same,solubility,"[3]; methanol, read-out: approximate solubility in MeOH",264000 to 348000 µg/mL
same,Plasma concentration of Compound I at 0.25 hours,[4]; [5],309 and 1500 and 2900 and 39.7 and 571
same,Plasma concentration of Compound I at 0.5 hours,[4]; [5],3650 and 3910 and 5440 and 726 and 3520
same,Plasma concentration of Compound I at 1 hour,[4]; [5],5470 and 7310 and 4880 and 5360
same,Plasma concentration of Compound I at 2 hours,[4]; [5],9370 and 10200 and 5680 and 5450 and 4130
same,Plasma concentration of Compound I at 4 hours,[4]; [5],8040 and 12900 and 4590 and 4840 and 3480
same,Plasma concentration of Compound I at 8 hours,[4]; [5],3650 and 6910 and 2500 and 3060 and 1630
same,Plasma concentration of Compound I at 24 hours,[4]; [5],597 and BLQ (3×)
same,Plasma concentration of Compound I at 36 hours,[4]; [5],11.0 and 17.8 and BLQ (2×) and 842
same,Plasma concentration of Compound I at 48 hours,[4]; [5],BLQ (3×) and 200 and 10.1
same,AUC0-last,[4]; [6],76500 ng·h/mL and 116000 ng·h/mL and 44300 ng·h/mL and 122000 ng·h/mL and 34200 ng·h/mL
same,AUC0-rt,[4]; [6],76600 ng·h/mL and 116000 ng·h/mL and 44400 ng·h/mL and 123000 ng·h/mL and 34300 ng·h/mL
same,Cmax,[4]; [6],9450 ng/mL and 12900 ng/mL and 7310 ng/mL and 5450 ng/mL and 5360 ng/mL
same,tmax,[4]; [6],1.00 h
same,AUC(0-t),"[4]; male, beagle, dog, plasma, po, 200 mg, mean",78500 ng·h/mL
same,AUC,"[4]; male, beagle, dog, plasma, po, 200 mg, mean, read-out: AUC0-rt",78900 ng·h/mL
same,Cmax,"[4]; male, beagle, dog, plasma, po, 200 mg, mean, read-out: Cmax",8100 ng/mL
same,tmax,"[4]; male, beagle, dog, plasma, po, 200 mg, mean, read-out: tmax",1.8 h
same,concentration at 1 h,[4]; [7],9450 ng/mL
same,concentration at 24 h,[4]; [7],352 ng/mL
same,concentration at 0.25 h,"[4]; male, beagle, dog, plasma, po, 200 mg/tablet/dog, mean, LOQ 1.02 to 5.1 ng/mL, read-out: Plasma concentration of Compound I at 0.25 hours",1060 ng/mL
same,concentration at 0.5 h,"[4]; male, beagle, dog, plasma, po, 200 mg/tablet/dog, mean, LOQ 1.02 to 5.1 ng/mL, read-out: Plasma concentration of Compound I at 0.5 hours",3450 ng/mL
same,concentration at 1 h,[4]; [8],6490 ng/mL
same,concentration at 2 h,"[4]; male, beagle, dog, plasma, po, 200 mg/tablet/dog, mean, LOQ 1.02 to 5.1 ng/mL, read-out: Plasma concentration of Compound I at 2 hours",6960 ng/mL
same,concentration at 4 h,"[4]; male, beagle, dog, plasma, po, 200 mg/tablet/dog, mean, LOQ 1.02 to 5.1 ng/mL, read-out: Plasma concentration of Compound I at 4 hours",6780 ng/mL
same,concentration at 8 h,"[4]; male, beagle, dog, plasma, po, 200 mg/tablet/dog, mean, LOQ 1.02 to 5.1 ng/mL, read-out: Plasma concentration of Compound I at 8 hours",3550 ng/mL
same,concentration at 24 h,[4]; [8],1070 ng/mL
same,concentration at 36 h,"[4]; male, beagle, dog, plasma, po, 200 mg/tablet/dog, mean, LOQ 1.02 to 5.1 ng/mL, read-out: Plasma concentration of Compound I at 36 hours",290 ng/mL
same,concentration at 48 h,"[4]; male, beagle, dog, plasma, po, 200 mg/tablet/dog, mean, LOQ 1.02 to 5.1 ng/mL, read-out: Plasma concentration of Compound I at 48 hours",105 ng/mL
